Measurements reported in patent publication US9469618B2, “Thiadiazolidinediones as GSK-3 inhibitors” (ASD THERAPEUTICS PARTNERS LLC, priority 2012, dated 2016).
≈ marks a conversion by molar mass, not a printed value.

How the values were obtained:
[1] = biological target: T1, human recombinant GSK3β (N-terminal 6His-tagged recombinant enzyme with an H350L mutation) (Homo sapiens, UniProt P49841); assay: GSK-3 assay (Z'-LYTE FRET enzymatic activity); format: biochemical; settings: 2 nM enzyme, 12.5 μM ATP, 2 μM Ser/Thr 9 peptide, 60 min at room temperature; concentration in M units; read-out: GSK-3 inhibition pEC50 average (converted)
T1 construct: 6His (N); purchased Millipore (Billerica, Mass., USA)
Method: The enzymatic activity of GSK3β was determined with a commercial system based on the Z'-LYTE® technology, available from Life Technologies (Carlsbad, Calif., USA), using human recombinant GSK3β (N-terminal 6His-tagged recombinant enzyme with an H350L mutation) from Millipore (Billerica, Mass., USA) as the enzyme source. This technology utilizes the fluorescence resonance energy transfer (“FRET”) process between fluorescein and coumarin. The assay principle is based on the differential sensitivity of phosphorylated and non-phosphorylated peptide to proteolytic cleavage, which precludes the energy transfer process between the two fluorophores attached to both sides of the cleavage site. […] The assay is performed in 384-well black plates, in a final volume of 10 μl, with 2 nM enzyme concentration in 50 mM Hepes pH 7.5, 50 mM MgCl2, 5 mM EGTA and 0.05% Brij-35, using 12.5 μM ATP and 2 μM substrate peptide. The latter is a synthetic peptide, provided by Invitrogen under the commercial name “Ser/Thr 9 peptide”, and it is based upon the sequence of a GSK3β substrate protein (glycogen synthase I) containing Ser-641. The peptide is labeled at both ends with fluorescein and coumarin. The assay is carried out in the presence of different concentrations of the tested compound, at a final 1% (v/v) DMSO concentration. After a 60 min incubation at room temperature, 5 μl of a commercial protease solution (sold by the same vendor in the assay kit) is added and a subsequent 1 h incubation at room temperature is performed, before adding 5 μl of a suitable “stop solution”, also provided by the vendor in the kit. After that, fluorescence intensity is recorded, monitoring emission at both 445 and 520 nm, upon excitation at 400 nm. An emission ratio is finally calculated, using the quotient among the emission at 445 nm divided by that at 520 nm.
The emission ratio of each tested sample is normalized to that of the control wells, so that for every compound concentration the percentage of inhibition is calculated by using the following equation:
[formula] where “S” is the emission from the wells with the tested sample, “E” is the average emission from control wells with full enzyme activity and “B” is the average emission from wells with full enzyme inhibition. Inhibition values obtained for every compound concentration are finally used to calculate the pEC50 of the tested compound, this parameter being the negative value of the logarithm of the compound concentration, in M units, causing 50% of its maximum effect (i.e., the higher the pEC50 value the higher the potency of the compound). For that purpose the data were fitted to the following equation using the nonlinear regression function of GraphPad™ Prism 5.0 (GraphPad Software Inc.): […]

[2] = Thermodynamic solubility of TDZDs; format: physicochemical; settings: phosphate buffered saline, aqueous buffer, thermodynamic from solid; aqueous 0.01 M PBS pH 7.4, 2 mg/mL samples, 24 hours mixing, LC-UV
Method: Thermodynamic solubility was determined in duplicate from samples with a compound concentration of 2 mg/mL in aqueous 0.01 M phosphate buffered saline (PBS) pH 7.4 with a mixing period of 24 hours. Analysis and quantification was performed by LC-UV. Calibration lines were prepared for each compound from samples at of 1.0, 0.1, 0.01 and 0.001 mg/mL concentration in acetonitrile.

T1 sequence (P49841 whole entry, stated change not applied): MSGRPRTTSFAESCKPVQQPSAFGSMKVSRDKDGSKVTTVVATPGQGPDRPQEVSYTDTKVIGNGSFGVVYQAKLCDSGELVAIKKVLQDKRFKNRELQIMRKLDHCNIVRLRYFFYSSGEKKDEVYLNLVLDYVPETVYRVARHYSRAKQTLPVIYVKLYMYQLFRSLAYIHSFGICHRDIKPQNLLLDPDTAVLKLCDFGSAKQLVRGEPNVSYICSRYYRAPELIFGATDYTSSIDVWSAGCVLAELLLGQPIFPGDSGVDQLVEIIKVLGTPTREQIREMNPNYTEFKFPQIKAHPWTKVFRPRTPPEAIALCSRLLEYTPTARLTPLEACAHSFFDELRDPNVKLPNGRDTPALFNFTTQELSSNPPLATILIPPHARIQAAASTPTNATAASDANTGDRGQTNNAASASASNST

SMILES	EC50 [1]	solubility thermodynamic at 24 h [2]
O=c1sn(Cc2ccccc2)c(=O)n1CC1CCCO1 (stereo not drawn) [Compound 2, 2-benzyl-4-(tetrahydro-furan-2-ylmethyl)-[1,2,4]thiadiazolidine-3,5-dione]	2000 nM	1030 µg/mL (≈ 3520 µM)
O=c1sn(-c2cccc3ccccc23)c(=O)n1Cc1ccccc1 [Compound 5, reference compound]	–	≤ 1 µg/mL

Other lines, results leading:

EC50 [1]	solubility thermodynamic at 24 h [2]	SMILES
631 nM	617 µg/mL (≈ 2610 µM)	CCn1c(=O)sn(Cc2ccccc2)c1=O [Compound 1, 2-benzyl-4-ethyl-[1,2,4]thiadiazolidine-3,5-dione]
25.1 nM	22 µg/mL (≈ 57.8 µM)	CCOC(=O)Cn1c(=O)sn(C(Cc2ccccc2)C(=O)OCC)c1=O (stereo not drawn) [Compound 3]
1580 nM	1840 µg/mL (≈ 7300 µM)	O=c1sn(Cc2ccccc2)c(=O)n1CCO [Compound 4, 2-benzyl-4-(2-hydroxy-ethyl)-[1,2,4]thiadiazolidine-3,5-dione]
